{"source": "patent US10406217B2", "about": "“Antifugetactic agents for the treatment of cancers” (The General Hospital Corporation, priority 2004, dated 2019)", "key": {"CXCR4 [1]": {"target": "T1, CXCR4 (Mus musculus, UniProt P70658)", "T1 sequence (P70658 whole entry)": "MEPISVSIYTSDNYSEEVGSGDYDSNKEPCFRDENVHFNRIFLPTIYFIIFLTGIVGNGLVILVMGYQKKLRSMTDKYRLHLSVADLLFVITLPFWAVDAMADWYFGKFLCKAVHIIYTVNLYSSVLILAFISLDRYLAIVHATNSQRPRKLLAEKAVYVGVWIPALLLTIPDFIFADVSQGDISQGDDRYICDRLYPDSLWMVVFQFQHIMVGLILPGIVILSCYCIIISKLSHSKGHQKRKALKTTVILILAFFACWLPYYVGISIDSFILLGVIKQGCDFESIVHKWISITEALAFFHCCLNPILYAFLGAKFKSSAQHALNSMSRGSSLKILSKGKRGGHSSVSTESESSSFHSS", "details": "B16/OVA.MSCV vs B16/OVA.SDF-1-high tumor, OT-I T-cells incubated with AMD3100 0.08 and 0.25 μg/ml before adoptive transfer, MRI 24 hours, mean±SD, n=3", "experimental": "(§1) In some experiments, activated OT-I CD8+ T cells were also preincubated with the CXCR4 antagonist, AMD3100, at concentrations of 0.08 and 0.25 μg/ml (15 min at RT) in a 12-well plate at a density of 1×10^7 cells/well prior to adoptive transfer (Hatse, S., et al. 2002, FEBS Lett 527:255). Survival analysis was evaluated in mice after in vivo generation of a tumor-specific memory T cell compartment (Bathe, O. F., et al. 2001, J Immunol 167:4511). 21 days after adoptive transfer of 1×10^7 OT-I CD8+ T cells (in 500 μl of HBSS via tail vein injection), two groups of mice (4 or 6 per group) were challenged s.c. in the right flank with 2×10^5 B 16/OVA.SDF-1-high cells or B16/OVA.MSCV control cells in 200 μl of HBSS using a 27 G needle (Bathe, O. F., et al. 2001, J Immunol 167:4511). […] Detectable tumor was considered to be >5 mm^2. Mice were sacrificed when tumors reached 400 mm^2 in size."}, "CXCR4 [2]": {"target": "T1, CXCR4", "details": "Matthys et al. 2001; cited from earlier work"}, "[3]": {"test_system": "B16/OVA.SDF-1-high tumors", "details": "naïve mice, AMD3100 1.25 mg/kg s.c. twice a day, average±SD", "experimental": "(§2) For in vitro growth, 5×10^5 tumor cells were seeded in T25 flasks (Becton Dickinson, Le Pont De Claix, France). Cultures were harvested daily for 3 consecutive days and viable cell yield determined. Tumorigenicity was determined by subcutaneous (s.c.) injection of 2×10^5 viable cells into the flank of mice in a total volume of 200 μl PBS using a 27 G needle. Tumor growth was also evaluated in naïve mice challenged with B16/OVA.MSCV or B16/OVA.SDF-1-high cells and injected twice a day s.c. with the CXCR4 antagonist. AMDS3100 (1.25 mg/kg s.c., Sigma). Tumor growth was measured every three or four days using a caliper. Tumor volume was recorded as the product of two orthogonal diameters (axb; a=longest diameter; b-orthogonal width) (Hanson, J. L., et al. 2000 Immunity 13:265-276). In immunization studies, mice were injected s.c. (at multiple sites) with 1×10^5 Irradiated (8568 cGy) B16/OVA.pc cells in a volume of 200 μl at d 0 and d 10. Fourteen days after immunization, mice were challenged s.c. in both flanks with 2×10^5 B16/OVA.MSCV B16/OVA.SDF-1 high cells, and tumor growth was measured as described above (Dranoff, G., et al. 1993 Proc Natl Acad Sci USA 90:3539-3543). In some experiments, mice were immunized with B16/OVA.SDF-1-high cells and then challenged with B16/OVA.SDF-1-high or B16/OVA.SDF-1-low cells. Mice were sacrificed when one or both tumors reached 200 mm^2 in volume."}, "B16/OVA.MSCV tumors": {"test_system": "B16/OVA.MSCV tumors", "details": "naïve mice, AMD3100 1.25 mg/kg s.c. twice a day from first day after challenge, average±SD", "experimental": "as §2"}, "CXCR4 [4]": {"target": "T1, CXCR4", "details": "T-cells pre-incubated with 5 μg/ml AMD3100 for 30 min; 15 hours incubation", "description": "The CXCR4 receptor was blocked by pre-incubation of T-cells with 5 μg/ml AMD3100 (Sigma, St. Louis, Mo.) for 30 min at 37° C. as previously described (70). Trajectories of migration were determined for randomly selected T-cells using Metamorph software. Cell path tracking and mean chemotropic indices (MCI) as a measurement of directionality of movement towards or away from β-TC3 cells were calculated using MetaMorph and MatLab software as previously described where an MCI of +0.1 to −0.1 indicates chemokinesis, >+0.1 indicates chemotaxis and <−0.1 indicates fugetaxis (Moghe, P. V., et al. 1995 J Immunol Methods 180, 193-211; McCutcheon, M. (1946) Physiological Reviews 26, 319)."}, "CXCR4 [5]": {"target": "T1, CXCR4", "details": "OT-I preincubated with AMD3100 5 μg/ml; flat-bottom wells; SIINFEKL-pulsed targets; ±SEM", "description": "Cytotoxicity of OT-I CD8+ cells was measured in a standard ^51Cr-release assay in round-bottom, wells as previously described (Brainard, D. M, et al. 2004. J Virol 78:5184-5193). The assay was also modified and performed in flat-bottom wells in order to determine the effects of CTL migration on killing efficacy in the context of target cells expressing SDF-1 (Hahne, M., et al. 1996 Science 274:1363-1366). B16/OVA.MSCV or B16/OVA.SDF1-high target cells were labeled with 100 μCi of ^51CR per 10^6 cells for 1 hour at 37° C. […] 30 μl of supernatant were harvested, and the radioactivity was counted in a γ-radiation counter. Cytotoxicity was expressed either as percent of lysis or as Lytic Unit 30 (LU30) as previously described (Brainard, D. M., et al. 2004. J Virol 78:5184-5193, Bryant, J., et al. 1992. J Immunol Meth 146:91-103). ^51Cr release assays were also performed in flat-bottom cells after preincubation of OT-I CD8+ T cells with the CXCR4 antagonist AMD3100 at concentrations of 0.25 and 1 μg/ml (Hatse, S. 2002 FEBS LETT 527:255-262)."}, "CXCR4 [6]": {"target": "T1, CXCR4", "excerpt": "Pregnant females at day 15.5 of gestation were sacrificed by CO2 asphyxiation, and embryos were chilled on ice. Fetal thymuses were carefully removed under a dissecting microscope, taking care to keep the anatomically identifiable lobes joined together. Thymuses were placed in HBSS and kept on ice. Individual thymuses were gently transferred onto the surface of a polycarbonate membrane of a 6.5 mm transwell insert with a 3.3 μm pore size (Corning Incorporated Life Sciences Action, Mass.). DMEM (360 μl) supplemented with 2 mM glutamine, 100 U/ml penicillin, 100 μg/ml streptomycin, 2×10^5 M 2-mercaptoethanol, 0.1 mM non-essential amino acids, 10% HEPES, and 10% FBS (Sigma) was added to the lower chamber of the transwell. This amount of medium allowed the thymus to be at the interface of medium and air. The cultures were incubated at 37° C., in 5% CO2, and medium was replaced every 3 days. Thymic emigrants, were collected from each thymus by transferring each transwell insert containing one thymus onto to a new well 24 hours before harvesting emigrant present in the lower chamber for analysis. On the day of analysis, two thymuses were harvested, and emigrants were pooled from at least 4 thymic lobes from CXCR4^+/− CXCR4^−/− mice. For each time-point, CXCR4^+/− and CXCR4^−/− thymuses from one or two pregnant females bred at the same time were analyzed, aiming to minimize differences in the stage of maturation and total cell recovery. E15.5 WT (CXCR4^+/+) thymuses were obtained from fetuses from C57BL/16 mice breedings. […] FTOC from DPC 15.5 CXCR4+/− or CXCR4−/−embryos were also prepared as above, and AMD3100 (0.5 or 1 gg/ml; Sigma) was added to the lower chamber of day 14 FTOC.\nThymic lobes were harvested and transferred to a 4-ml round bottom polystyrene tube containing 0.4 mg/ml collagenase (from Clostridium histolyticum, type V, clostridiopeptidase A, SIGMA Chemicals), 10% FBS, EDTA0.2 mg/ml and 0.2 M phosphate. After 30 minutes incubation at 37° C., thymuses were disaggregated by gentle pipetting until no visible fragments remained. Cell suspensions were washed once in HBSS and 10% FBS to prevent further enzyme action. Cells were resuspended in PBS containing 0.1% bovine serum albumin and counted using a hemocytometer. After incubation for 30 minutes on ice with 0.5 gg of 2.4G2 antibody to block Fc binding, direct staining for three or four color analysis was performed. Cell suspensions were incubated for 15 minutes at 4° C. and then washed twice with staining buffer and analyzed using a FACSCalibur (BD Biosciences). Data analysis was performed with FlowJo software (Tree Star, Inc. Ashland, Oreg.). […] For annexin V and PI staining, an Annexin V-FITC Apoptosis Detection Kit I was used (BD Pharmingen). […] Mean log fluorescence intensity (MFI) values were obtained by subtracting the MFI of the isotype control from the MFI of the positively stained sample. To evaluate whether the differences between the peaks of cells were statistically significant with respect to controls, the Kolmogorov-Smirnov test for analysis of histograms was used."}, "CXCR4 [7]": {"target": "T1, CXCR4", "details": "48 hours", "experimental": "as §1\nImmunized mice and mice that received adoptive transfer of OT-I CD8+ T-cells were evaluated for T cell infiltration of tumors by immunohistochemistry. Animals were sacrificed and tumors excised with preservation of the capsule. Resected tumors were fixed in 10% neutral buffered formalin and embedded in paraffin. Serial 5 μm sections of tumors were stained with H & E or with polyclonal anti-CD3 Ab or isotype control Ab, followed by incubation with secondary HRP-labeled anti-rabbit Dako EnVision Ab (DakoCytomation). T-cell infiltration was quantified by counting four random 200× field powers of the turner sections, each […] in area."}, "Protein Kinase C": {"test_system": "Protein Kinase C", "assay": "Microfluidic migration assay of neutrophils in linear IL-8 gradients (mean chemotropism index)", "format": "cell-based, Human", "details": "25 μM pretreatment; IL-8 gradient in which fugetaxis is predominant (600 nM to 1.2 μM); p=0.0001", "text": "Human whole blood was obtained from healthy volunteers by venipuncture into tubes-containing sodium heparin (Becton Dickinson, San Jose, Calif.). Neutrophils were isolated by density gradient centrifugation and purified by hypotonic lysis, as previously described (Tager, A. M., et al. 1998. Am J Respir Cell Mol Biol 19:643-52).\nThe microfluidic linear gradient generators were fabricated in poly(dimethylsiloxane) (PMDS; Sylgard 184, Dow Corning, N.Y.), and gradient generation was verified with fluorescin isothiocyanate (FITC; Sigma-Aldrich), as previously described (Li Jeon, N., et al. 2002. Nat Biotechnol 20:826-30; Whitesides, G. M., et al. 2001. Annu Rev Biomed Eng 3:335-73), […]\nCell movement was tracked using MetaMorph 4.5 (Universal Imaging, Dowington, Pa.) object tracking application, which generated tables of Cartesian coordinate data for each cell. Tracking data was analyzed in Excel (Microsoft, USA) and MATLAB 13 (The Mathworks, Inc., Newton, Mass.) to determine angular frequencies, mean squared displacements, migration velocities, persistence times, random motility coefficients, and random walk path lengths. […] For each cell, the squared displacement R(t) was calculated at time interval t, R^2(t)=(x(t0+t)−x(t0))^2+(y(t0+t)−y(t0))^2, (1) where t0 is the time at the origin. […]"}, "CXCR2": {"test_system": "CXCR2", "assay": "CXCR2 staining of neutrophils following IL-8 exposure", "format": "cell-based, Human", "details": "single pulse of IL-8 at 12 nM, 120 nM, 1.2 μM and 2.4 μM; data not shown", "experimental": "(§3) Calcium flux in neutrophils in response to IL-8 was measured as previously described (Mahon M. J., et al. 2004 J Biol Chem 279:23550-8). Briefly, isolated cells (˜10^7/ml) were transferred into a balanced salt solution (127 mM NaCl, 3.8 mM KCl, 1.2 mM KH2PO4, 1.2 mM CaCl2, 0.9 mM MgCl2, 5 mM glucose, and 10 mM HEPES, pH 7.4), incubated for 45 min at room temperature with 1.25 μM Fura-2 acetoxymethyl ester (Molecular Probes, Eugene, Oreg.), washed with the balanced salt solution, and unloaded for 15 min at room temperature. […] Calcium flux in response to indicated concentrations of IL-8 (Akahoshi T., et al. 1994 Lymphokine Cytokine Res 13:113-6) was measured by fluorescence of cells excited at 340 and 380 nm using a PTI Deltascan dual-wavelength fluorimeter (Photon Technologies Incorporated, Lawrenceville, N.J.), observed through a Nikon Diaphot 200 microscope (Melville, N.Y.) and Sensys charge-coupled device camera (Photometrics, Ltd., Tucson, Ariz.), and analyzed using the Poenie-Tsien ratio with Imagemaster 2 software (Photon Technologies Incorporated). Signaling responses to IL-8 at designated concentrations were calibrated against maximal calcium flux as determined by treatment with 5 μM ionomycin (Sigma). CXCR2 expression on neutrophils pre- and post-exposure to 120 nM, 1.2 μM and 2.4 μM IL-8 was determined using PE-labelled anti-CXCR2 IgGl antibody (R & D systems). […]"}, "[8]": {"test_system": "Primary human neutrophils", "assay": "Calcium flux in neutrophils in response to IL-8 (Fura-2)", "format": "cell-based", "details": "calibrated against 5 μM ionomycin", "experimental": "as §3"}, "[9]": {"details": "OT-I CD8+ T-cells incubated with 0.08 μg/ml AMD3100 before adoptive transfer"}, "[10]": {"details": "OT-I CD8+ T-cells incubated with 0.25 μg/ml AMD3100 before adoptive transfer"}}, "note": "Like-named read-outs stand apart in the source and are kept apart here.", "data": [{"molecule": "c1cc(CN2CCCNCCNCCCNCC2)ccc1CN1CCCNCCNCCCNCC1", "note": "[AMD3100]", "values": [{"measurement": "ratio of T2 fit value in the right and left tumors", "setting": "CXCR4 [1]", "result": "1+0.12"}, {"measurement": "ratio of T2 fit value in the right and left tumors", "setting": "CXCR4 [1]; listed as AM3100", "result": "0.55±0.13"}, {"measurement": "intracellular Ca+ flux and chemotactic responses of murine splenocytes to SDF1", "setting": "CXCR4 [2]", "result": "inhibit"}, {"measurement": "time for tumor growth to 200 mm^2", "setting": "[3]", "result": "23.6 ± 2.08", "unit": "days"}, {"measurement": "average time to tumor growth to a size of 200 mm^2", "setting": "B16/OVA.MSCV tumors", "result": "22 ± 2", "unit": "days"}, {"measurement": "T-cell migration away from SDF-1 secreting MSCV.SDF-1 bright cells", "setting": "CXCR4 [4]", "result": "failed to migrate away from SDF-1 secreting cells"}, {"measurement": "LU30, killing of B16/OVA.SDF-1-high cells by OT-I CD8+ T-cells", "setting": "CXCR4 [5]", "result": "77×10^6±15"}, {"measurement": "total number of cells in the thymus", "setting": "CXCR4 [6]; day 14 FTOC incubated 24 hours with 1 μg/ml AMD3100", "result": "349±99.5 ×10^3/lobe"}, {"measurement": "SP CD4 thymocytes emigrating from thymus", "setting": "CXCR4 [6]; day 14 FTOC, 24 hours with 1 μg/ml AMD3100, mean±SEM", "result": "1.1±0.15 ×10^3/love"}, {"measurement": "CD62L^high CD4 SP cells in the thymus vs untreated", "setting": "CXCR4 [6]; day 14 FTOC, 24 hours with 1 μg/ml AMD3100, p=0.017", "result": "retention of CD62L^high CD4 SP cells in the thymus"}, {"measurement": "CD62L expression by SP CD8 thymocytes", "setting": "CXCR4 [6]; day 14 FTOC, 24 hours with 1 μg/ml AMD3100, p=0.56", "result": "not affected"}, {"measurement": "total number of SP CD8 emigrants vs untreated FTOC", "setting": "CXCR4 [6]; day 14 FTOC, 24 hours with 1 μg/ml AMD3100, p=0.93", "result": "did not differ"}, {"measurement": "CD3+ T-cell infiltration into B16/OVA.SDF-1-high tumors", "setting": "CXCR4 [7]; [9]", "result": "101±10.6", "unit": "cells/mm^2"}, {"measurement": "number of T-cells infiltrating B16/OVA.MSCV tumors", "setting": "CXCR4 [7]; [9]", "result": "109±3.2", "unit": "cells/mm^2"}, {"measurement": "CD3+ T-cell infiltration into B16/OVA.SDF-1-high tumors", "setting": "CXCR4 [7]; [10]", "result": "88.1±16.9", "unit": "cells/mm^2"}, {"measurement": "number of T-cells infiltrating B16/OVA.MSCV tumors", "setting": "CXCR4 [7]; [10]", "result": "93±14.8", "unit": "cells/mm^2"}]}, {"molecule": "CN(C)CCCn1cc(C2=C(c3c[nH]c4ccccc34)C(=O)NC2=O)c2ccccc21", "note": "[GF 109230X]", "values": [{"measurement": "effect on neutrophil fugetaxis in IL-8 gradient", "setting": "Protein Kinase C", "result": "selectively inhibited fugetaxis and converted a fugetactic response into a predominantly chemoattraction response"}]}, {"molecule": "IL-8: human Interleukin-8 (72 amino acids; PeproTech), chemokine", "values": [{"measurement": "reduction of CXCR2 mean fluorescent intensity from baseline", "setting": "CXCR2", "result": "2- to 3 fold"}, {"measurement": "Peak calcium flux response (percentage of maximal calcium flux)", "setting": "[8]; 120 nM IL-8", "result": 48, "unit": "%+/−5.1"}, {"measurement": "Peak calcium flux response (percentage of maximal calcium flux)", "setting": "[8]; 1.20 μM IL-8", "result": 83, "unit": "%+/−7.9"}]}]}
